Results as given in ChEMBL document CHEMBL1151757, “Synthesis, radiosynthesis, and biological evaluation of fluorine-18-labeled 2beta-carbo(fluoroalkoxy)-3beta-(3'-((Z)-2-haloethenyl)phenyl)nortropanes: candidate radioligands for in vivo imaging of the serotonin transporter with positron emission tomography” (J Med Chem, 2008).

What was measured:
[1] = Drug uptake in awake rhesus monkey brain medulla after 7.5 mins postinjection; format: ADME, organism-based, Macaca mulatta; conditions: in vivo, 0.125 h
[2] = Ratio of drug uptake in frontal lobe to cerebellum in anesthetized cynomolgus monkey after 95 mins postinjection; format: ADME, organism-based, Macaca fascicularis; conditions: in vivo
Medulla [3] = test: Drug uptake in anesthetized cynomolgus monkey brain medulla after 2.5 mins postinjection; format: ADME, organism-based, Macaca fascicularis; conditions: in vivo
[4] = Drug uptake in awake rhesus monkey brain pons after 65 mins postinjection; format: ADME, organism-based, Macaca mulatta; conditions: in vivo
Medulla [5] = test: Drug uptake in anesthetized cynomolgus monkey brain medulla after 85 mins postinjection; format: ADME, organism-based, Macaca fascicularis; conditions: in vivo
Caudate [6] = test: Drug uptake in anesthetized cynomolgus monkey brain caudate after 135 mins postinjection; format: ADME, organism-based, Macaca fascicularis, Caudate nucleus; conditions: in vivo, 2.25 h
Pons [7] = test: Drug uptake in anesthetized cynomolgus monkey brain pons after 35 mins postinjection; format: ADME, organism-based, Macaca fascicularis; conditions: in vivo
[8] = Drug uptake in anesthetized cynomolgus monkey brain cerebellum after 182.5 mins postinjection; format: ADME, organism-based, Macaca fascicularis; conditions: in vivo
[9] = Drug uptake in anesthetized cynomolgus monkey brain frontal lobe after 197.5 mins postinjection; format: ADME, organism-based, Macaca fascicularis; conditions: in vivo
[10] = Drug uptake in anesthetized cynomolgus monkey brain cerebellum after 207.5 mins postinjection; format: ADME, organism-based, Macaca fascicularis; conditions: in vivo
[11] = Ratio of drug uptake in occipital lobe to cerebellum in anesthetized cynomolgus monkey after 4.5 mins postinjection; format: ADME, organism-based, Macaca fascicularis; conditions: in vivo, 0.075 h
Caudate [12] = test: Drug uptake in anesthetized cynomolgus monkey brain caudate after 75 mins postinjection; format: ADME, organism-based, Macaca fascicularis, Caudate nucleus; conditions: in vivo, 1.25 h
[13] = Drug uptake in awake rhesus monkey brain cerebellum after 10.5 mins postinjection; format: ADME, organism-based, Macaca mulatta; conditions: in vivo, 0.175 h
Putamen [14] = test: Drug uptake in anesthetized cynomolgus monkey brain putamen after 75 mins postinjection; format: ADME, organism-based, Macaca fascicularis; design: unit not given here; conditions: in vivo, 1.25 h
[15] = Drug uptake in anesthetized cynomolgus monkey brain cerebellum after 22.5 mins postinjection; format: ADME, organism-based, Macaca fascicularis; conditions: in vivo, 0.375 h
[16] = Ratio of drug uptake in frontal lobe to cerebellum in awake rhesus monkey after 35 mins postinjection; format: ADME, organism-based, Macaca mulatta; conditions: in vivo
Midbrain [17] = test: Drug uptake in anesthetized cynomolgus monkey brain midbrain after 45 mins postinjection; format: ADME, organism-based, Macaca fascicularis; design: unit not given here; conditions: in vivo, 0.75 h
Thalamus [18] = test: Drug uptake in anesthetized cynomolgus monkey brain thalamus after 125 mins postinjection; format: ADME, organism-based, Macaca fascicularis; design: unit not given here; conditions: in vivo
Medulla [19] = test: Drug uptake in anesthetized cynomolgus monkey brain medulla after 65 mins postinjection; format: ADME, organism-based, Macaca fascicularis; conditions: in vivo
Putamen [20] = test: Drug uptake in anesthetized cynomolgus monkey brain putamen after 18.5 mins postinjection; format: ADME, organism-based, Macaca fascicularis; design: unit not given here; conditions: in vivo
[21] = Drug uptake in anesthetized cynomolgus monkey brain occipital lobe after 65 mins postinjection; format: ADME, organism-based, Macaca fascicularis; conditions: in vivo
Midbrain [22] = test: Drug uptake in anesthetized cynomolgus monkey brain midbrain after 187.5 mins postinjection; format: ADME, organism-based, Macaca fascicularis; conditions: in vivo, 3.125 h
Midbrain [23] = test: Drug uptake in anesthetized cynomolgus monkey brain midbrain after 207.5 mins postinjection; format: ADME, organism-based, Macaca fascicularis; conditions: in vivo
Pons [24] = test: Drug uptake in anesthetized cynomolgus monkey brain pons after 45 mins postinjection; format: ADME, organism-based, Macaca fascicularis; conditions: in vivo, 0.75 h
Thalamus [25] = test: Drug uptake in anesthetized cynomolgus monkey brain thalamus after 0.5 mins postinjection; format: ADME, organism-based, Macaca fascicularis; conditions: in vivo
[26] = Ratio of drug uptake in medulla to cerebellum in anesthetized cynomolgus monkey after 165 mins postinjection; format: ADME, organism-based, Macaca fascicularis; conditions: in vivo, 2.75 h
[27] = Ratio of drug uptake in medulla to cerebellum in anesthetized cynomolgus monkey after 0.5 mins postinjection; format: ADME, organism-based, Macaca fascicularis; conditions: in vivo
Putamen [28] = test: Drug uptake in anesthetized cynomolgus monkey brain putamen after 27.5 mins postinjection; format: ADME, organism-based, Macaca fascicularis; design: unit not given here; conditions: in vivo
Medulla [29] = test: Drug uptake in anesthetized cynomolgus monkey brain medulla after 207.5 mins postinjection; format: ADME, organism-based, Macaca fascicularis; conditions: in vivo
Pons [30] = test: Drug uptake in anesthetized cynomolgus monkey brain pons after 125 mins postinjection; format: ADME, organism-based, Macaca fascicularis; conditions: in vivo
Medulla [31] = test: Drug uptake in anesthetized cynomolgus monkey brain medulla after 182.5 mins postinjection; format: ADME, organism-based, Macaca fascicularis; conditions: in vivo
[32] = Ratio of drug uptake in frontal lobe to cerebellum in anesthetized cynomolgus monkey after 75 mins postinjection; format: ADME, organism-based, Macaca fascicularis; conditions: in vivo, 1.25 h
Pons [33] = test: Drug uptake in anesthetized cynomolgus monkey brain pons after 202.5 mins postinjection; format: ADME, organism-based, Macaca fascicularis; conditions: in vivo, 3.375 h
[34] = Ratio of drug uptake in midbrain to cerebellum in anesthetized cynomolgus monkey after 18.5 mins postinjection; format: ADME, organism-based, Macaca fascicularis; conditions: in vivo
Pons [35] = test: Drug uptake in anesthetized cynomolgus monkey brain pons after 135 mins postinjection; format: ADME, organism-based, Macaca fascicularis; conditions: in vivo, 2.25 h
Putamen [36] = test: Drug uptake in anesthetized cynomolgus monkey brain putamen after 225 mins postinjection; format: ADME, organism-based, Macaca fascicularis; conditions: in vivo, 3.75 h
Pons [37] = test: Drug uptake in anesthetized cynomolgus monkey brain pons after 182.5 mins postinjection; format: ADME, organism-based, Macaca fascicularis; conditions: in vivo
[38] = Ratio of drug uptake in thalamus to cerebellum in anesthetized cynomolgus monkey after 9.5 mins postinjection; format: ADME, organism-based, Macaca fascicularis; conditions: in vivo
Putamen [39] = test: Drug uptake in anesthetized cynomolgus monkey brain putamen after 0.5 mins postinjection; format: ADME, organism-based, Macaca fascicularis; conditions: in vivo
[40] = Drug uptake in awake rhesus monkey brain caudate after 4.5 mins postinjection; format: ADME, organism-based, Macaca mulatta, Caudate nucleus; conditions: in vivo, 0.075 h
[41] = Drug uptake in awake rhesus monkey brain caudate after 25 mins postinjection; format: ADME, organism-based, Macaca mulatta, Caudate nucleus; conditions: in vivo
Putamen [42] = test: Drug uptake in anesthetized cynomolgus monkey brain putamen after 182.5 mins postinjection; format: ADME, organism-based, Macaca fascicularis; conditions: in vivo
[43] = Drug uptake in anesthetized cynomolgus monkey brain frontal lobe after 165 mins postinjection; format: ADME, organism-based, Macaca fascicularis; conditions: in vivo, 2.75 h
[44] = Drug uptake in anesthetized cynomolgus monkey brain occipital lobe after 197.5 mins postinjection; format: ADME, organism-based, Macaca fascicularis; conditions: in vivo
Thalamus [45] = test: Drug uptake in anesthetized cynomolgus monkey brain thalamus after 12.5 mins postinjection; format: ADME, organism-based, Macaca fascicularis; design: unit not given here; conditions: in vivo
[46] = Drug uptake in awake rhesus monkey brain medulla after 115 mins postinjection; format: ADME, organism-based, Macaca mulatta; conditions: in vivo
Medulla [47] = test: Drug uptake in anesthetized cynomolgus monkey brain medulla after 187.5 mins postinjection; format: ADME, organism-based, Macaca fascicularis; conditions: in vivo, 3.125 h
Midbrain [48] = test: Drug uptake in anesthetized cynomolgus monkey brain midbrain after 35 mins postinjection; format: ADME, organism-based, Macaca fascicularis; design: unit not given here; conditions: in vivo
[49] = Drug uptake in awake rhesus monkey brain medulla after 85 mins postinjection; format: ADME, organism-based, Macaca mulatta; conditions: in vivo

## O=C(OCC[18F])C1C2CCC(CC1c1cccc(/C=C\I)c1)N2 (centres undefined)
[1]
  Drug uptake: 0.07
[2]
  Ratio: 1
Medulla [3]
  Drug uptake: 0.52
[4]
  Drug uptake: 0.14
Medulla [5]
  Drug uptake: 3.75
Caudate [6]
  Drug uptake: 2.87
Pons [7]
  Drug uptake: 3.29
[8]
  Drug uptake: 1.52
[9]
  Drug uptake: 1.58
[10]
  Drug uptake: 1.4
[11]
  Ratio: 0.6
Caudate [12]
  Drug uptake: 3.62
[13]
  Drug uptake: 0.08
Putamen [14]
  Drug uptake: 4.28
[15]
  Drug uptake: 4.02
[16]
  Ratio: 1
Midbrain [17]
  Drug uptake: 4.9
Thalamus [18]
  Drug uptake: 3.41
Medulla [19]
  Drug uptake: 3.97
Putamen [20]
  Drug uptake: 3.78
[21]
  Drug uptake: 2.86
Midbrain [22]
  Drug uptake: 3.37
Midbrain [23]
  Drug uptake: 3.17
Pons [24]
  Drug uptake: 3.34
Thalamus [25]
  Drug uptake: 0
[26]
  Ratio: 1.7
[27]
  Ratio: 1.6
Putamen [28]
  Drug uptake: 4.16
Medulla [29]
  Drug uptake: 2.5
Pons [30]
  Drug uptake: 2.76
Medulla [31]
  Drug uptake: 2.68
[32]
  Ratio: 0.9
Pons [33]
  Drug uptake: 2.25
[34]
  Ratio: 1.1
Pons [35]
  Drug uptake: 2.65
Putamen [36]
  Drug uptake: 2.44
Pons [37]
  Drug uptake: 2.17
[38]
  Ratio: 0.9
Putamen [39]
  Drug uptake: 0
[40]
  Drug uptake: 0.06
[41]
  Drug uptake: 0.13
Putamen [42]
  Drug uptake: 2.78
[43]
  Drug uptake: 1.81
[44]
  Drug uptake: 1.39
Thalamus [45]
  Drug uptake: 3.32
[46]
  Drug uptake: 0.11
Medulla [47]
  Drug uptake: 2.64
Midbrain [48]
  Drug uptake: 4.85
[49]
  Drug uptake: 0.11
